The structures appear in SMILES notation. Calls of active or inactive are those of the source. The calls are words filed in the database; no cut-off is given here.

Here are results for one compound from ChEMBL document CHEMBL5055685, “Discovery of the First Potent IDO1/IDO2 Dual Inhibitors: A Promising Strategy for Cancer Immunotherapy” (J Med Chem, 2021).

For assay [1], the target named is Serine/threonine-protein kinase 26 (Homo sapiens) (UniProt Q9P289). As to the kind of experiment: Inhibition of MST4 (unknown origin) at 1 uM.
The target in assay [2] is Serine/threonine-protein kinase Chk1 (Homo sapiens) (UniProt O14757). As to the kind of experiment: Inhibition of CHK1 (unknown origin) at 1 uM.
Assay [3] addresses STE20/SPS1-related proline-alanine-rich protein kinase (Homo sapiens) (UniProt Q9UEW8). As to the kind of experiment: Inhibition of STK39 (unknown origin) at 1 uM.
Assay [4] concerns the target CDK17/Cyclin-Y (Homo sapiens) (UniProt Q00537+Q8ND76). As to the kind of experiment: Inhibition of CDK17/cyclin-Y (unknown origin) at 1 uM. Format: protein-complex assay.
Assay [5] relates to HCT-116. As to the kind of experiment: Antitumor immunity in BALB/c mouse xenografted with human HCT-116 cells assessed as increase in CD86 expression in CD11c+ cells by propidium iodide staining based flow cytometry analysis (reference value: 72 %). Format: functional. (In xenograft studies the graft and the host belong to different species.)
Assay [6] has as its system HCT-116. As to the kind of experiment: Antitumor immunity in BALB/c mouse xenografted with human HCT-116 cells assessed as late Treg cells in tumor-draining lymph nodes by propidium iodide staining based flow cytometry analysis (reference value: 18.3 %). Format: functional.
For assay [7], the target named is Leukocyte tyrosine kinase receptor (Homo sapiens) (UniProt P29376). As to the kind of experiment: Inhibition of TYK1 (unknown origin) at 1 uM.
The target of assay [8] is Serine/threonine-protein kinase TAO3 (Homo sapiens) (UniProt Q9H2K8). As to the kind of experiment: Inhibition of TAOK3 (unknown origin) at 1 uM.
Assay [9] has as its target Serine/threonine-protein kinase TAO1 (Homo sapiens) (UniProt Q7L7X3). As to the kind of experiment: Inhibition of TAOK1 (unknown origin) at 1 uM.
In assay [10] the target is Serine/threonine-protein kinase pim-2 (Homo sapiens) (UniProt Q9P1W9). As to the kind of experiment: Inhibition of PIM2 (unknown origin) at 1 uM.
Serine/threonine-protein kinase pim-2 (Homo sapiens), sequence (Q9P1W9 whole entry, looked up): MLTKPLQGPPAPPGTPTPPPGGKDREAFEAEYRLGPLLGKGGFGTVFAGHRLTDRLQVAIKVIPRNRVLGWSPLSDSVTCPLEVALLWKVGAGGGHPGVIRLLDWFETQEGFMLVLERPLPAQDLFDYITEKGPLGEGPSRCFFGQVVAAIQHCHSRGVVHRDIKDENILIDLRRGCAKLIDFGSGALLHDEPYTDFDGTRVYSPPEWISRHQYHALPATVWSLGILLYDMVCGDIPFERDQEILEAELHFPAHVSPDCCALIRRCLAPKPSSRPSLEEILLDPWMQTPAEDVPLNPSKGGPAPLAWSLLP

CDK17/Cyclin-Y (Homo sapiens), sequence (Q00537 whole entry): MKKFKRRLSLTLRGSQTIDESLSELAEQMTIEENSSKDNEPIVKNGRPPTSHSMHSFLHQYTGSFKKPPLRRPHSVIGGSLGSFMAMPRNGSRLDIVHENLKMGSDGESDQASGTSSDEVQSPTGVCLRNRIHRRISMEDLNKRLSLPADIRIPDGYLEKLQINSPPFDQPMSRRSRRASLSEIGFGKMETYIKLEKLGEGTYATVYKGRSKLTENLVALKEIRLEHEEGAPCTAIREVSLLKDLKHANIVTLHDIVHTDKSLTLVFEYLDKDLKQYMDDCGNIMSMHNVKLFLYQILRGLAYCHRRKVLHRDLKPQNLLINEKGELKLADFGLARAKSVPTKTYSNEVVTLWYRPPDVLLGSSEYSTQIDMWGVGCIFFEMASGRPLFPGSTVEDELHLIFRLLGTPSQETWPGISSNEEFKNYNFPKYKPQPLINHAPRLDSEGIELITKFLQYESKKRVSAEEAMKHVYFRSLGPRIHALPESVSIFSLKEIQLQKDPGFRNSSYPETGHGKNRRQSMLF
CDK17/Cyclin-Y (Homo sapiens), sequence (Q8ND76 2-341 partner limits assumed): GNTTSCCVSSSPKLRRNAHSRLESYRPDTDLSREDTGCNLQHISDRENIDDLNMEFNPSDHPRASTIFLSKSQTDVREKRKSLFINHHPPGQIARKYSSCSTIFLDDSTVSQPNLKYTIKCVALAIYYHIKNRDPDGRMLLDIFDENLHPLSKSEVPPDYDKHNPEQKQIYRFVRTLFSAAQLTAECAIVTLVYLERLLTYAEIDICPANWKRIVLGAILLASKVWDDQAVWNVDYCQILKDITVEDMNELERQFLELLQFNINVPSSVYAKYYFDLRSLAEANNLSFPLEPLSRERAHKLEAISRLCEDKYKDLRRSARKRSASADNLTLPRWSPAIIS
Serine/threonine-protein kinase TAO3 (Homo sapiens), sequence (Q9H2K8 whole entry): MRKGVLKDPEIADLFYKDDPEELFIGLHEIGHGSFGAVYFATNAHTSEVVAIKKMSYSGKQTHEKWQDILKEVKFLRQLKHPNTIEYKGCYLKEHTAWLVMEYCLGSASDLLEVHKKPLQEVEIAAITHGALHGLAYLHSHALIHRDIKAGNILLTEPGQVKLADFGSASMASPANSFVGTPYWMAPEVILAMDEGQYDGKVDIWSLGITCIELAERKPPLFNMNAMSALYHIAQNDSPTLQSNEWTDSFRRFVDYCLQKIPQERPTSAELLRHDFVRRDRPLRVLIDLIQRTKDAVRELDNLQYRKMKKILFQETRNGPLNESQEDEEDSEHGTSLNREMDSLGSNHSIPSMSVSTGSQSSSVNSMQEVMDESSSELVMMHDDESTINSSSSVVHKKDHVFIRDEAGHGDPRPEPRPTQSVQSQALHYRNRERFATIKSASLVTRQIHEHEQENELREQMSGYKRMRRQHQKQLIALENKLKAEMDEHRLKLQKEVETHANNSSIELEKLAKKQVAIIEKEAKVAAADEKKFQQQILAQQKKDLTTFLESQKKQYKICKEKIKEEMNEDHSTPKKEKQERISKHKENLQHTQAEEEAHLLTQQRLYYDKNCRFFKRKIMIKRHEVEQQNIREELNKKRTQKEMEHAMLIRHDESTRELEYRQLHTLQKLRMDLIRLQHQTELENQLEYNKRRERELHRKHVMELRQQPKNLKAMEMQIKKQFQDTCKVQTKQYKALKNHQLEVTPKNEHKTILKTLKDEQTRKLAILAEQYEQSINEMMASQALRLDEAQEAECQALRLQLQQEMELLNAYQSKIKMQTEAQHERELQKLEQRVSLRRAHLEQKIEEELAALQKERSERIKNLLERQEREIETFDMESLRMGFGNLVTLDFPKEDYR
Serine/threonine-protein kinase TAO1 (Homo sapiens), sequence (Q7L7X3 whole entry): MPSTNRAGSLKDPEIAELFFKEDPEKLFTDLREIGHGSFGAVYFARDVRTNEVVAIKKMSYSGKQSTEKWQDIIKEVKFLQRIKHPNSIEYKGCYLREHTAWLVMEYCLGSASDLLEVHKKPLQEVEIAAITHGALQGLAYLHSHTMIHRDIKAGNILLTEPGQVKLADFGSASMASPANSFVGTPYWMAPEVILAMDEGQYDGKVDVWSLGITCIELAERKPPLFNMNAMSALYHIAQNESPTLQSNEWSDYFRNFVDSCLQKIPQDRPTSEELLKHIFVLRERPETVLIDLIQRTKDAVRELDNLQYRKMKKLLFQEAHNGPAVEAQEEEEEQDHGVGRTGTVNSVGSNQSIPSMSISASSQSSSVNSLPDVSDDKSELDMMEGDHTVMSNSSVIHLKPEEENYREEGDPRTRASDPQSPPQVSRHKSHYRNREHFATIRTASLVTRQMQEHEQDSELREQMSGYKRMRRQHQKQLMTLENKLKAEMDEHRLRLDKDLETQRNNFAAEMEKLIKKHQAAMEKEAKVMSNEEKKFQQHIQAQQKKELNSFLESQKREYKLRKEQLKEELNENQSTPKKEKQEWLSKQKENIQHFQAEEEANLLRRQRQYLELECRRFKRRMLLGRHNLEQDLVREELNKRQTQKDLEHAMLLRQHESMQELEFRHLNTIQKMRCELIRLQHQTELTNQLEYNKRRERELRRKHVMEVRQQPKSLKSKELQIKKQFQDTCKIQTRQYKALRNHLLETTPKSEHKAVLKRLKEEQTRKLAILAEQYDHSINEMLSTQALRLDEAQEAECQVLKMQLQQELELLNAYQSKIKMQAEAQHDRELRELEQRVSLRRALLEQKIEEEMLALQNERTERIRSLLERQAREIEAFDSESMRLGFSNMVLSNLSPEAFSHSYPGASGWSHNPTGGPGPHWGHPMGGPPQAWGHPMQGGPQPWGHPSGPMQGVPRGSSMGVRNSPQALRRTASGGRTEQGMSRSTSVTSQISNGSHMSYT
Serine/threonine-protein kinase 26 (Homo sapiens), sequence (Q9P289 2-416 limits assumed): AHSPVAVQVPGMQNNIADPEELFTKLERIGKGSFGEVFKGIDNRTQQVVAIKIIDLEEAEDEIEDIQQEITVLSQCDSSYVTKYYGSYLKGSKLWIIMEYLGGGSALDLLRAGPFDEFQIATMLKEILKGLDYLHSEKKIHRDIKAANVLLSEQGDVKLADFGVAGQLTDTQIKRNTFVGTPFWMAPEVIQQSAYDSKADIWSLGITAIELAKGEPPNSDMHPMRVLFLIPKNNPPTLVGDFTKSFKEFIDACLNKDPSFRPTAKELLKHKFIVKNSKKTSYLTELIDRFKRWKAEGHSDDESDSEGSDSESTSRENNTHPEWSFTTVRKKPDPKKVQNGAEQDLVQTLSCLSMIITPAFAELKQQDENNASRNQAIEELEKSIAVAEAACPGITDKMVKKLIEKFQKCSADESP
Serine/threonine-protein kinase Chk1 (Homo sapiens), sequence (O14757 whole entry): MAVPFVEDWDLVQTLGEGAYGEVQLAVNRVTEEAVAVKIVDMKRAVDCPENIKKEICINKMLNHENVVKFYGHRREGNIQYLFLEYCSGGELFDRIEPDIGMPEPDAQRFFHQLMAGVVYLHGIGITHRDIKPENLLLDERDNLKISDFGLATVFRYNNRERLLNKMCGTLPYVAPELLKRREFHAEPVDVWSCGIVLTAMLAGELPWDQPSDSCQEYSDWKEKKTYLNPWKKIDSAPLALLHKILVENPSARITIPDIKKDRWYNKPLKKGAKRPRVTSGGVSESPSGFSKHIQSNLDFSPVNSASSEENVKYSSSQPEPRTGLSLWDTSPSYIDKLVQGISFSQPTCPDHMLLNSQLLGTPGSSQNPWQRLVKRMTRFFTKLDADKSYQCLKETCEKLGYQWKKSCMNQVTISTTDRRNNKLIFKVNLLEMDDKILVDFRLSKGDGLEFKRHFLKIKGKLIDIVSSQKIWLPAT
Leukocyte tyrosine kinase receptor (Homo sapiens), sequence (P29376 whole entry): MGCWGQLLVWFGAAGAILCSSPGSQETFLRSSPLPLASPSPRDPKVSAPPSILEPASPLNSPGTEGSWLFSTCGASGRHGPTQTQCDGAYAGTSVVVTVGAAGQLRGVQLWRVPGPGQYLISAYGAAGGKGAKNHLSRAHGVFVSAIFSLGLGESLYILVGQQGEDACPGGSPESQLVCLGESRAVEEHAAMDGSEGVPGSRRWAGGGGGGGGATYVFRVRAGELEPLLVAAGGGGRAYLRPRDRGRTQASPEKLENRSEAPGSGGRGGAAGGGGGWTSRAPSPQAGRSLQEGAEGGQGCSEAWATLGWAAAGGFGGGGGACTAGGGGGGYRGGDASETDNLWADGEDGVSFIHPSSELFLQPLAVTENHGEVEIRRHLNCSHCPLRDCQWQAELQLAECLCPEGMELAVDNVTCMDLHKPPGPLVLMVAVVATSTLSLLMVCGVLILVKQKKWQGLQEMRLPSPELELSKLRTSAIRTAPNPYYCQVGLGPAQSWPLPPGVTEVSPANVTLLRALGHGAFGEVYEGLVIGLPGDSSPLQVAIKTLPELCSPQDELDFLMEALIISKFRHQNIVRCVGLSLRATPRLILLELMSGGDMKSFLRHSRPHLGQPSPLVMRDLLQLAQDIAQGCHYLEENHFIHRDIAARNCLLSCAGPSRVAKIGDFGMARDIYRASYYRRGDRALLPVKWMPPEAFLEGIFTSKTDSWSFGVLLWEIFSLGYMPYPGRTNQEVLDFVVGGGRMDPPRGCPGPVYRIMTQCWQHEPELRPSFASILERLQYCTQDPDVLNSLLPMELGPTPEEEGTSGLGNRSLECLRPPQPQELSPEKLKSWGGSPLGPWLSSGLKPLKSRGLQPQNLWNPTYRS

As to `OCCOCc1cn(CCNc2nonc2/C(=N/O)Nc2ccc(F)c(Br)c2)nn1`, the inhibition result in assay [1], in assay [2], in assay [3], in [4], in [7] and in assay [8] was “inactive” each time. The inhibition entry in assay [9] and in [10] was “inactive” throughout. Also, the results for the Activity in assay [5] and in [6] were 62.6% and 7.31%, respectively.
